Test results reported in US12065436B2, “Cardiac sarcomere inhibitors” (Cytokinetics, Inc., priority 2018, dated 2024).
Read-outs that look alike come from different tables or passages of the source.

Columns and labels:
[1] = molecular target: bovine cardiac myofibrils (full-length cardiac myosin ATPase in the native sarcomere) (Bos taurus (Bovine), UniProt Q9BE39); test: Skinned bovine cardiac myofibril ATPase assay (PK/LDH-coupled); assay type: biochemical; details: Ca2+ activating to 75% of maximal rate; for CDMF75 IC15: concentration giving 15% inhibition; for IC50: read-out: CDMF75 IC50
bovine cardiac myofibrils (full-length cardiac myosin ATPase in the native sarcomere), sequence (Q9BE39 whole entry): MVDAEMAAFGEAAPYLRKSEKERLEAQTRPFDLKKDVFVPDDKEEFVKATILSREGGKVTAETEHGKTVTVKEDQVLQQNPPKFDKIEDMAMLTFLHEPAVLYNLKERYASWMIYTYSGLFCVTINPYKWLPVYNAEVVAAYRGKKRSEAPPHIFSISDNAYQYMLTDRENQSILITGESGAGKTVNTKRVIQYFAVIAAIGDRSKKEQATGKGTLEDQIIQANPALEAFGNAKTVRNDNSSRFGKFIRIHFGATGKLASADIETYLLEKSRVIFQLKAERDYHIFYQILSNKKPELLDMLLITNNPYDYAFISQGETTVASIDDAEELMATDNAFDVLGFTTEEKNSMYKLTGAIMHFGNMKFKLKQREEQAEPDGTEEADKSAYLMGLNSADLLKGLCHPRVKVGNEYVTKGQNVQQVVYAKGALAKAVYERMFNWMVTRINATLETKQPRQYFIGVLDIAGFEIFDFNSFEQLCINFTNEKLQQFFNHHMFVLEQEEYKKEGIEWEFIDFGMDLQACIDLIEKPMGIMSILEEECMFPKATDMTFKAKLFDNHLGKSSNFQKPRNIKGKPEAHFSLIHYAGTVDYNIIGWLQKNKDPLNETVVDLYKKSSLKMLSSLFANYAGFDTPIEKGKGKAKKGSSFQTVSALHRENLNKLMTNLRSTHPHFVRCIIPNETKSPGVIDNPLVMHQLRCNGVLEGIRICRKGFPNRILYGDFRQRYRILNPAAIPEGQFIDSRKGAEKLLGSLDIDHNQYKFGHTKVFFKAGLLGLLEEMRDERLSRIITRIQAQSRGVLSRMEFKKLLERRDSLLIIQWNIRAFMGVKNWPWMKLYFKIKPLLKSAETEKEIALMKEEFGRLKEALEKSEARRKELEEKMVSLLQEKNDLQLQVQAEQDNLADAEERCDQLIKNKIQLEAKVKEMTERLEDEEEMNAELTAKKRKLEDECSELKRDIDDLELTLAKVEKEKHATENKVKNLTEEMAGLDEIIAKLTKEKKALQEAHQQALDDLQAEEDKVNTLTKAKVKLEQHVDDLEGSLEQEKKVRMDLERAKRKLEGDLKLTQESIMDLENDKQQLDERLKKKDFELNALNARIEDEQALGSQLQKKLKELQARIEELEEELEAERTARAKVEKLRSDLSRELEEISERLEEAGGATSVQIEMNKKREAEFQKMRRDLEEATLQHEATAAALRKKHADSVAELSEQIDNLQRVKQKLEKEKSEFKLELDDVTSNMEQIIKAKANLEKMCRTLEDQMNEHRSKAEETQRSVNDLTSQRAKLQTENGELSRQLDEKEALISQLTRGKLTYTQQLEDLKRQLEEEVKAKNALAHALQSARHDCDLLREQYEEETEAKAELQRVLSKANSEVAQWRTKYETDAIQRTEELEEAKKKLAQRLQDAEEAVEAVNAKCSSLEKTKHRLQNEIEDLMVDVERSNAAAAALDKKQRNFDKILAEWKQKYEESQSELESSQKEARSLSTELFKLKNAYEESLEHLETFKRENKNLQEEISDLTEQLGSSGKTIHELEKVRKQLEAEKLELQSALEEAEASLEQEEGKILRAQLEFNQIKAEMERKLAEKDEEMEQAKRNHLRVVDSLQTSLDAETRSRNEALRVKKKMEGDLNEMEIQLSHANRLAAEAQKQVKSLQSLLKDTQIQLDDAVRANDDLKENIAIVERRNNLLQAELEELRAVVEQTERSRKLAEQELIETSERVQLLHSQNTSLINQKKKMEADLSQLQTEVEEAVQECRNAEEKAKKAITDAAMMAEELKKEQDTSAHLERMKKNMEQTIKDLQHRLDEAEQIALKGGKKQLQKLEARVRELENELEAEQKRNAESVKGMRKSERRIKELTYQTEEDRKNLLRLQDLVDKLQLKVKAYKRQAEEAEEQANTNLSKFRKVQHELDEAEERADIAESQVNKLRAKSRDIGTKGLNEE
bovine cardiac myofibrils (full-length cardiac myosin ATPase in the native sarcomere), sequence (P85100 whole entry partner): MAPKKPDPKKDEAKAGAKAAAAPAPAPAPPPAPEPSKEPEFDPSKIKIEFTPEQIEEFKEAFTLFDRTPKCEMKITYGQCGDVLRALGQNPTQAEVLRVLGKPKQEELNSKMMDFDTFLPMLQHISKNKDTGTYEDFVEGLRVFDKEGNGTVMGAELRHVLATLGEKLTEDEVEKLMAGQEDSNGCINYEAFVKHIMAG
bovine cardiac myofibrils (full-length cardiac myosin ATPase in the native sarcomere), sequence (Q3SZE5 whole entry partner): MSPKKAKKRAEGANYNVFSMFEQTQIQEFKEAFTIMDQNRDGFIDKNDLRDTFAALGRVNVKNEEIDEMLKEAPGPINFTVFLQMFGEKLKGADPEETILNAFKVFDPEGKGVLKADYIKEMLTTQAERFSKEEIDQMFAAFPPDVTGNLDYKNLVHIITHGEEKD
Outline: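 Triton-skinned bovine left-ventricle myofibrils (1 mg/mL) in PM 12 buffer (12 mM PIPES, 2 mM MgCl2, pH 6.8) with 50 μM ATP, 0.6 mM EGTA and CaCl2 set for 50% or 75% activation. Steady-state ATPase inhibition followed by PK/LDH-coupled NADH oxidation at 340 nm.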

[2] = test system: rat cardiac contractility (left ventricle fractional shortening); test: Echocardiography of acute effect on rat cardiac contractility, continuous IV infusion; assay type: in vivo, Sprague Dawley rats; details: Rattus norvegicus, plasma concentration at which fractional shortening is 50% of pre-dose baseline, estimated, read-out: IC50 (Mean ± S.D.)
Method: (§1) Assessment of in vivo cardiac function by echocardiography was performed in male Sprague Dawley rats under isoflurane (1-3%) anesthesia. 2-D M-mode images of the left ventricle were acquired in the parasternal long-axis view before, during, and after administration of compounds by continuous IV infusion or oral gavage. In vivo fractional shortening was determined by M-mode image analysis with the following calculation: ((End diastolic diameter−end systolic diameter)/end diastolic diameter×100). For continuous IV infusion experiments, three pre-dose baseline M-mode images were taken at 1 minute intervals prior to infusion of compound. Compounds were formulated in 50% Propylene Glycol (PG): 16% Captisol: 10% dimethylacetamide (DMA) and delivered via a jugular vein catheter at the rate of 1 mL/kg/h. During infusion, M-mode images were taken at 5 minute intervals. The infusion stopped when fractional shortening reached up to a 60% reduction from baseline. Blood samples were taken to determine the plasma concentration of the compounds. Data was reported as an estimated IC50 value, which is the concentration at which fractional shortening is 50% of the pre-dose baseline contractility.

[3] = test system: rat cardiac contractility (left ventricle fractional shortening); test: Echocardiography of acute effect on rat cardiac contractility, oral gavage; assay type: in vivo, Sprague Dawley rats; details: for inhibition in vivo at 8 mg/kg / IC50 / inhibition in vivo at 4 mg/kg / inhibition in vivo at 6 mg/kg / inhibition in vivo at 10 mg/kg: Rattus norvegicus; for inhibition in vivo at 8 mg/kg / inhibition in vivo at 4 mg/kg / inhibition in vivo at 6 mg/kg / inhibition in vivo at 10 mg/kg: oral gavage; for IC50 / IC10: oral dosing, estimated; for IC50: plasma concentration at which fractional shortening is 50% of pre-dose baseline; for IC10: plasma concentration at which
Method: as §1
For oral dosing studies, three pre-dose baseline M-Mode images were taken at 1 minute intervals prior to compound administration. Compounds were formulated in a 0.5% hydroxypropyl methylcellulose 2910 (HPMC 2910): 0.1% Tween 80 suspension and delivered as a single dose (5 mL/kg) by oral gavage. Rats were lightly anesthetized for M-Mode echocardiography measurements at select time points over a 24 hour period. Different dose levels were evaluated for each compound. The compound effect on cardiac fractional shortening at the highest dose evaluated is presented in Table D as a percent reduction of baseline fractional shortening (=100%).
Concurrent with echocardiography measurements, blood samples were taken to determine the corresponding compound plasma concentration.

[4] = 1 h, 1-2 h post dose, read-out: FS (% reduction from baseline) at 1-2 h post dose (Mean ± S.D.)
[5] = 4 h post dose, read-out: FS (% reduction from baseline) at 4 h post dose (Mean ± S.D.)

SMILES	CDMF75 IC15 [1] [µM]	IC50 [1] [µM]	IC50 [2] [µM]	IC50 [3] [µM]	inhibition in vivo at 8 mg/kg [3, 4] [%]	inhibition in vivo at 8 mg/kg [3, 5] [%]	IC10 [3] [µM]	inhibition in vivo at 4 mg/kg [3, 4] [%]	inhibition in vivo at 4 mg/kg [3, 5] [%]	inhibition in vivo at 6 mg/kg [3, 4] [%]	inhibition in vivo at 6 mg/kg [3, 5] [%]	inhibition in vivo at 10 mg/kg [3, 4] [%]	inhibition in vivo at 10 mg/kg [3, 5] [%]
Cn1nnc(C(=O)N[C@@H]2CCc3cc(-c4noc(C5CC5)n4)ccc32)n1 [Compound 141, (R)—N-(5-(5-cyclopropyl-1,2,4-oxadiazol-3-yl)-2,3-dihydro-1H-inden-1-yl)-2-methyl-2H-tetrazole-5-carboxamide]	0.3	0.9	1.5 ± 0.05										
CCc1nc(-c2ccc3c(c2)CC[C@H]3NC(=O)c2cc(C)no2)no1 [Compound 565, (R)-N-(5-(5-ethyl-1,2,4-oxadiazol-3-yl)-2,3-dihydro-1H-inden-1-yl)-3-methylisoxazole-5-carboxamide]	0.3	1.1		37	55 ± 13	43 ± 13	11						
CCc1nc(-c2ccc3c(c2)CC[C@H]3NC(=O)c2nnc(C)o2)no1 [Compound 617, (R)-N-(5-(5-ethyl-1,2,4-oxadiazol-3-yl)-2,3-dihydro-1H-inden-1-yl)-5-methyl-1,3,4-oxadiazole-2-carboxamide]	0.3	1.2		1.2			0.3			64 ± 4	37 ± 7		
O=C(N[C@@H]1COc2cc(-c3noc(C(F)F)n3)ccc21)c1ccnc(CO)c1 [Compound 709, (S)-N-(6-(5-(difluoromethyl)-1,2,4-oxadiazol-3-yl)-2,3-dihydrobenzofuran-3-yl)-2-(hydroxymethyl)isonicotinamide]	0.6	2.3		4.3	68 ± 2	31 ± 3	1.5						

Second part, led by results:

CDMF75 IC15 [1] [µM]	IC50 [1] [µM]	IC50 [2] [µM]	IC50 [3] [µM]	SMILES	inhibition in vivo at 8 mg/kg [3, 4] [%]	inhibition in vivo at 8 mg/kg [3, 5] [%]	IC10 [3] [µM]	inhibition in vivo at 4 mg/kg [3, 4] [%]	inhibition in vivo at 4 mg/kg [3, 5] [%]	inhibition in vivo at 6 mg/kg [3, 4] [%]	inhibition in vivo at 6 mg/kg [3, 5] [%]	inhibition in vivo at 10 mg/kg [3, 4] [%]	inhibition in vivo at 10 mg/kg [3, 5] [%]
0.4	1.3		0.7	CCc1nc(-c2ccc3c(c2)CC[C@H]3NC(=O)c2ccnc(CO)c2)no1 [Compound 577, (R)-N-(5-(5-ethyl-1,2,4-oxadiazol-3-yl)-2,3-dihydro-1H-inden-1-yl)-2-(hydroxymethyl)isonicotinamide]			0.1	67 ± 6	34 ± 11				
0.7	2.3		1.6	CCc1nc(-c2ccc3c(c2)CC[C@H]3NC(=O)c2ccc(=O)n(C)c2)no1 [Compound 589, (R)-N-(5-(5-ethyl-1,2,4-oxadiazol-3-yl)-2,3-dihydro-1H-inden-1-yl)-1-methyl-6-oxo-1,6-dihydropyridine-3-carboxamide]			0.3			73 ± 12	46 ± 3		
0.5	1.9		3.3	O=C(N[C@@H]1CCc2cc(-c3noc(C(F)F)n3)ccc21)c1ccnc(CO)c1 [Compound 664, (R)-N-(5-(5-(difluoromethyl)-1,2,4-oxadiazol-3-yl)-2,3-dihydro-1H-inden-1-yl)-2-(hydroxymethyl)isonicotinamide]			1.2			65 ± 4	38 ± 5		
0.9	3.7		8.3	COCc1nc(-c2ccc3c(c2)CC[C@H]3NC(=O)c2nnc(C)o2)no1 [Compound 697, (R)-N-(5-(5-(methoxymethyl)-1,2,4-oxadiazol-3-yl)-2,3-dihydro-1H-inden-1-yl)-5-methyl-1,3,4-oxadiazole-2-carboxamide]			3.3					70 ± 2	45 ± 3
1.2	4.1		4.7	COCc1nc(-c2ccc3c(c2)CC[C@H]3NC(=O)c2ccnc(CO)c2)no1 [Compound 727, (R)-2-(hydroxymethyl)-N-(5-(5-(methoxymethyl)-1,2,4-oxadiazol-3-yl)-2,3-dihydro-1H-inden-1-yl)isonicotinamide]	63 ± 1	33 ± 1	1.2						
